Measurements reported in article PMC9913752, “Proof-of-Concept Study of an Alpha-Fetoprotein-Derived Peptide for the Management of Canine Mammary Cancer” (Animals : an Open Access Journal from MDPI, 2023).
Like-named read-outs stand apart in the source and are kept apart here. Where a SMILES comes first, the peptide text is derived from it. [ ]: non-standard residue; d: D form. Hyp = O=C(O)[C@@H]1C[C@@H](O)CN1

Columns and labels:
Pharmacokinetics in dogs = format: in vivo; settings: dog; for AUC / Cmax: plasma LC/MS/MS
Method: (§1) AFPep (4 mg/kg) was administered by parenteral (i.v., s.c.) as well as oral routes to normal adult mice, dogs, and monkeys. Blood samples were obtained from anesthetized mice via the retroorbital plexus. Blood samples from dogs and monkeys were obtained through an indwelling catheter in the cephalic vein by the veterinarian staff at Albany Medical College. Dogs were awake and alert during sampling; monkeys were under anesthesia, as previously described. For the oral route, gavage was used in mice and monkeys; enteric capsules ([…]) containing AFPep were used and were readily swallowed by dogs. AFPep blood levels were measured using lliquid chromatography and mass spectrometry, as previously described.

in vivo = assay: in vivo; design: species or system Macaca mulatta; settings: monkey
Method: as §1

[1] = Blood chemistry and hematology after single i.v. dose in dogs; format: in vivo, dog; design: Bilirubin Conjugated / WBC: unit not given here
Method: Monkeys (Macaca mulatta, males) were contractually available through the Animal Resource Facility at Albany Medical College. The monkeys were used to assess pharmacokinetics and tolerability, in anticipation of future human studies. For dogs and monkeys, the full panels of clinical chemistry and hematology parameters were assessed. Monkeys were housed and cared for in accordance with the Guide for the Care and Use of Laboratory Animals (National Research Council, Washington, DC, USA). They were fed a standard Old World monkey diet, enriched with fruits and vegetables and other dietary novelties.

[2] = Clinical parameters in unanesthetized dogs; format: in vivo, dog
[3] = 8-day repeat-dose study, AFPep blood levels in tumor-bearing dogs; format: in vivo, dog; settings: for level at 0.5 h: female, dog, blood, sc, 10 mg
Source text: Previous studies utilizing repeat dosing in mice and rats established safe starting doses for studies using dogs. Female dogs with one or more spontaneously occurring mammary gland tumors greater than approximately 2 cm in maximum diameter, presenting to the Cancer Institute at the Schwarzman Animal Medical Center in New York City, were screened for inclusion in the study. […] All dogs underwent complete clinical staging, consisting of a complete blood count with cell differential, clinical chemistry, and urinalysis. Dogs were administered AFPep 10 mg s.c. once daily for 8 consecutive days. Tumors were biopsied prior to the administration of AFPep and were surgically removed on day 8 after the last injection of AFPep. Blood levels of AFPep were measured before and 30 minutes following its administration on the first day and eighth day of treatment with AFPep. Histopathology was obtained on all mammary gland tumors. Tolerability was assessed using the Veterinary Cooperative Oncology Group Common Terminology Criteria for Adverse Events. Blood chemistry and hematology analyses were performed at IDEXX Laboratories Inc. (Westbrook, ME, USA), using the Sysmex XT and Beckman AU 5800 systems. This study was approved by the Schwarzman Animal Medical Center IACUC and informed consent was obtained in writing from all owners.

[4] = system: MNU-induced mammary tumors; settings: cited from earlier work
Source text: (§2) Table 1 The therapeutic and preventive efficacy of AFPep * in rodent models of mammary cancer. | column: MNU-Induced Mammary Tumors in Sprague Dawley Rats ^2 || As models for preventive interventions, two widely used mammary cancer induction models in rats were studied to assess the cancer prevention capabilities of AFPep.

[5] = system: Estrogen-induced mammary tumors; settings: cited from earlier work
Source text: as §2, with “Estrogen-Induced” for “MNU-Induced”, “ACI” for “Sprague Dawley”, “^3” for “^2”

[6] = system: ER-positive primary canine mammary cancer cells; settings: cited from earlier work
Method: It is important to note that during the development of AFPep, head-to-tail cyclization was carried out to increase stability as well as oral bioavailability. Other investigators have shown that the cyclization of peptides increases bioavailability.

[7] = p.o. enteric capsules (DRcaps), 4 mg/kg per footnote (100 mg/kg orally)
[8] = dogs ~10 kg, 24 h after i.v. 40 mg AFPep, average from 2 dogs
[9] = dogs ~10 kg, 24 h after i.v. 40 mg AFPep, average ± range from 2 dogs, in U/L (unit assumed)
[10] = dogs ~10 kg, 24 h after i.v. 40 mg AFPep, average ± range from 2 dogs, in g/dL (unit assumed)
[11] = dogs ~10 kg, 24 h after i.v. 40 mg AFPep, average ± range from 2 dogs, in mg/dL (unit assumed)
[12] = dogs ~10 kg, 24 h after i.v. 40 mg AFPep, average ± range from 2 dogs, in mmol/L (unit assumed)
[13] = unanesthetized dogs, 30 min Post AFPep, mean ± SE from 6 dogs

- T1/2 (Pharmacokinetics in dogs; in vivo): 0.65 h
- half-life (Pharmacokinetics in dogs; in vivo, iv, 4 mg/kg): 0.3 h
- half-life (Pharmacokinetics in dogs; in vivo, sc, 4 mg/kg): 1.08 h
- AUC (Pharmacokinetics in dogs; [7]): 14 min(µg/mL)
- Cmax (Pharmacokinetics in dogs; [7]): 100 ng/mL
- Cmax (Pharmacokinetics in dogs; iv, i.v., 4 mg/kg, non-linear regression, first-order PK model, read-out: Cmax): 35000 ng/mL
- AUC (Pharmacokinetics in dogs; iv, i.v., 4 mg/kg, read-out: AUC (converted)): 15000 ng·h/mL
- AUC (Pharmacokinetics in dogs; sc, s.c., 4 mg/kg, read-out: AUC (converted)): 13500 ng·h/mL
- Cmax (Pharmacokinetics in dogs; sc, s.c., 4 mg/kg, read-out: Cmax): 5800 ng/mL
- AUC (in vivo; iv, 4 mg/kg): 26200 ng·h/mL
- Cmax (in vivo; iv, 4 mg/kg): 13000 ng/mL
- half-life (in vivo; iv, 4 mg/kg): 1.78 h
- half-life (in vivo; po): 13.5 h
- AUC (in vivo; sc, 4 mg/kg): 23400 ng·h/mL
- Cmax (in vivo; sc, 4 mg/kg): 8200 ng/mL
- half-life (in vivo; sc, 4 mg/kg): 0.45 h
- liver enzymes ([1]; 4 mg/kg i.v., dogs, no anesthesia, mild manual restraint): No such elevations in liver enzymes
- Bilirubin Conjugated [1, 8]: 0
- Total Bilirubin [1, 8]: 0.1 mg/dL
- WBC ([1]; dogs ~10 kg, 24 h after i.v. 40 mg AFPep, average ± range from 2 dogs): 7.0 ± 3
- Platelet ([1]; dogs ~10 kg, 24 h after i.v. 40 mg AFPep, average ± range from 2 dogs, in 10^3/µL (unit assumed)): 274 ± 21
- RBC ([1]; dogs ~10 kg, 24 h after i.v. 40 mg AFPep, average ± range from 2 dogs, in 10^6/µL (unit assumed)): 6.9 ± 1
- HCT ([1]; dogs ~10 kg, 24 h after i.v. 40 mg AFPep, average ± range from 2 dogs, in % (unit assumed)): 46 ± 1.5
- ALP [1, 9]: 33 ± 2
- Creatine Kinase [1, 9]: 135 ± 2.7
- GGT [1, 9]: 3 ± 1
- MCV ([1]; dogs ~10 kg, 24 h after i.v. 40 mg AFPep, average ± range from 2 dogs, in fL (unit assumed)): 68 ± 0.8
- Albumin [1, 10]: 3.2 ± 0.1
- Globulin [1, 10]: 2.6 ± 0.1
- HGB [1, 10]: 15.9 ± 1
- Total Protein [1, 10]: 5.8 ± 0.1
- BUN [1, 11]: 13.2 ± 2
- Calcium [1, 11]: 10.3 ± 0.4
- Cholesterol [1, 11]: 171 ± 2
- Creatinine [1, 11]: 0.7 ± 0.1
- Glucose [1, 11]: 93 ± 9
- Phosphorous [1, 11]: 4.6 ± 0.2
- Bicarbonate TCO2 [1, 12]: 21 ± 1
- Chloride [1, 12]: 112 ± 1
- Potassium [1, 12]: 4.7 ± 0.1
- Sodium [1, 12]: 146 ± 2
- MCH ([1]; dogs ~10 kg, 24 h after i.v. 40 mg AFPep, average ± range from 2 dogs, in pg (unit assumed)): 23.2 ± 1
- reflux or vomiting after administration ([2]; dogs): no evidence of reflux or vomiting
- Capillary refill time ([2]; unanesthetized dogs, 30 min Post AFPep, 6 dogs): <2 s
- Body temperature ([2]; unanesthetized dogs, 30 min Post AFPep, mean from 6 dogs): 39.0 °C
- Respiration Rate [2, 13]: 28 ± 4
- AFPep blood level, Day 8 Pre-Treatment ([3]; Chihuahua, 7.53 kg, 10 mg s.c. once daily for 8 days, single animal): 0 ng/mL
- AFPep blood level, Day 8 Pre-Treatment ([3]; Pitbull, 30.2 kg, 10 mg s.c. once daily for 8 days, single animal): 0 ng/mL
- AFPep blood level, Day 8 Pre-Treatment ([3]; Pomeranian, 7.98 kg, 10 mg s.c. once daily for 8 days, single animal): 0 ng/mL
- AFPep blood level, Day 8 Pre-Treatment ([3]; Shih tzu, 11.02 kg, 10 mg s.c. once daily for 8 days, single animal): 0 ng/mL
- AFPep blood level, Day 8 Pre-Treatment ([3]; Yorkshire terrier, 5.86 kg, 10 mg s.c. once daily for 8 days, single animal): 0 ng/mL
- level at 0.5 h ([3]; Pomeranian, Pomeranian, 7.98 kg, 30 min after 10 mg s.c., single animal, read-out: AFPep blood level, Day 1 Post-Treatment): 2400 ng/mL
- level at 0.5 h ([3]; Pomeranian, Pomeranian, 7.98 kg, 30 min after dose, 10 mg s.c. once daily for 8 days, single animal, read-out: AFPep blood level, Day 8 Post-Treatment): 2100 ng/mL
- level at 0.5 h ([3]; Poodle mix, Poodle mix, 5.80 kg, 30 min after 10 mg s.c., single animal, read-out: AFPep blood level, Day 1 Post-Treatment): 4400 ng/mL
- level at 0.5 h ([3]; Poodle mix, Poodle mix, 5.80 kg, 30 min after dose, 10 mg s.c. once daily for 8 days, single animal, read-out: AFPep blood level, Day 8 Post-Treatment): 5000 ng/mL
- level at 0.5 h ([3]; Yorkshire terrier, Yorkshire terrier, 5.86 kg, 30 min after 10 mg s.c., single animal, read-out: AFPep blood level, Day 1 Post-Treatment): 2200 ng/mL
- level at 0.5 h ([3]; Yorkshire terrier, Yorkshire terrier, 5.86 kg, 30 min after dose, 10 mg s.c. once daily for 8 days, single animal, read-out: AFPep blood level, Day 8 Post-Treatment): 1900 ng/mL
- level at 0.5 h ([3]; diverse breeds, Mean ± S.D. of 6 tumor-bearing dogs, 30 min after 10 mg s.c., first day, read-out: AFPep blood level, Day 1 Post-Treatment): 3600 ± 1200 ng/mL
- level at 0.5 h ([3]; diverse breeds, Mean ± S.D. of 6 tumor-bearing dogs, 30 min after the day-8 dose, 10 mg s.c. once daily for 8 days, read-out: AFPep blood level, Day 8 Post-Treatment): 2500 ± 600 ng/mL
- level at 0.5 h ([3]; summary of Table 6, 30 minutes post-AFPep, 10 mg s.c. once a day for 8 days, 6 tumor-bearing dogs, read-out: AFPep blood levels): 2000 to 3000 ng/mL
SMILES: CC(C)[C@@H]1NC(=O)[C@@H]2C[C@@H](O)CN2C(=O)[C@H]([C@@H](C)O)NC(=O)[C@H](CCCCN)NC(=O)[C@H](CCC(=O)O)NC(=O)[C@H](CC(N)=O)NC(=O)CNC(=O)[C@@H]2C[C@@H](O)CN2C(=O)[C@H](CC(N)=O)NC1=O [AFPep] (cyclo(EKT[Hyp]VN[Hyp]GN))
- changes to clinical chemistry and hematology values ([1]; 4 mg/kg i.v., normal beagle dogs): In no case did exposure to AFPep result in significant changes
- ALT [1, 9]: 16 ± 1
- AST [1, 9]: 20 ± 1
- other clinical indicators (mobility, playfulness, appetite, stool consistency, heart rate, respiration rate, capillary refill time, body temperature) ([2]; dogs): remained normal
- Heart Rate [2, 13]: 112 ± 5
- MNU-Induced Mammary Tumors in Sprague Dawley Rats, % of Rats with Tumors ([4]; MNU 50 mg/kg, AFPep 4 mg/kg s.c. once daily for 23 days from 10 days after MNU, p < 0.05): 40 * %
- latency period of cancer appearance ([4]; chemically induced model): prolonged
- Estrogen-Induced Mammary Tumors in ACI Rats, % of Rats with Tumors ([5]; estradiol Silastic implant, AFPep s.c. once daily, p < 0.05): 48 * %
- latency period of cancer appearance ([5]; hormone-induced model): prolonged
- activity against ER-positive primary canine mammary cancer cells growing in culture [6]: effective
